Each compound was assayed against T1, EED (1-441)-His protein (Homo sapiens, UniProt O75530) (assay: EED-H3K27Me3 peptide competition binding assay by AlphaScreen). Conditions: Table 4A, read-out: Alpha screen.
T1 construct: 20 nM EED (1-441)-His protein
Experimental: EED-H3K27Me3 Peptide Competition Binding Assay by AlphaScreen (α-Screen):
The compounds at each concentration (2.5 μl of each) were transferred into a 384-well Perkin Elmer OptiPlate-384 white plates. 5 μl of solutions containing 20 nM EED (1-441)-His protein in the buffer (25 mM HEPES, pH 8, 0.02% Tween-20, 0.5% BSA) were added to the wells and then incubated with compound for 15 min. 2.5 μl of solutions containing 20 nM biotin-H3K27Me3 (19-33) peptide in the buffer (25 mM HEPES, pH 8, 0.02% Tween-20, 0.5% BSA) were added to the wells and then incubated with compound for 30 min. AlphaScreen detection beads mix was prepared immediately before use by mixing nickel chelate acceptor beads and streptavidin donor beads in a 1:1 ratio (Perkin Elmer, Product No. 6760619C/M/R) into the buffer described above. Then 10 μl of the detection beads mix was added to the plate and incubated in the dark at RT for 1 h. The final concentration of donor and acceptor beads was 10 μg/ml for each. Plates were read on CLARIOStar plate reader (BMG Labtech) using the AlphaScreen setting adapted for optimal signal detection with a 615 nm filter, after sample excitation at 680 nm. The emission signal at 615 nm was used to quantify compound inhibition. AlphaScreen signals were normalized based on the reading coming from the positive (maximum signal control) and negative controls (minimum signal control) to give percentage of activities left. The data were then fit to a dose response equation to get the IC50 values.

T1 sequence (O75530 whole entry): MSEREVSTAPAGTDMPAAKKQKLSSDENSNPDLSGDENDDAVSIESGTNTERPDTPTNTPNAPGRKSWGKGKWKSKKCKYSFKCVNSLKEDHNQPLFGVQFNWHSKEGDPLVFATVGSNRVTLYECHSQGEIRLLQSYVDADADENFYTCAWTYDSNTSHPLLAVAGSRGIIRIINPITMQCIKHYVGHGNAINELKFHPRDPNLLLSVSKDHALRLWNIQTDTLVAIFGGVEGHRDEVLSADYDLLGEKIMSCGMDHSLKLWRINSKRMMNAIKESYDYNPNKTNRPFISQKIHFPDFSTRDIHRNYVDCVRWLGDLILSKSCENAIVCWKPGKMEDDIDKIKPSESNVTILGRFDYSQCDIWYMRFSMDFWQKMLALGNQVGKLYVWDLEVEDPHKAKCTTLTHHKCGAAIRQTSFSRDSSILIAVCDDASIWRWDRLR

Q: With `Cc1cccc(F)c1CNc1ncc2c3c(ncn13)COCc1ncccc1-2` [Compound 1, N-(2-fluoro-6-methylbenzyl)-3H,5H-4-oxa-2,6,11, 12a-tetraazabenzo[4,5]cycloocta[1,2,3-cd]inden-1 2-amine] as the compound, how does the IC50 read?
A: Its IC50 is greater than 10 nM.

Q: For `Fc1ccc2c(c1CNc1ncc3c4c(ncn14)COCc1ncccc1-3)CCO2` [Compound 2, N-((5-fluoro-2,3-dihydrobenzofuran-4-yl)methyl)-3H,5H-4-oxa-2,6,11,12a-tetraazabenzo[4,5]cycloocta[1,2,3-cd]inden-12-amine], which IC50 is on record?
A: Its IC50 is greater than 10 nM.

Q: Which IC50 does the source give for `O=C1Nc2ccccc2-c2cnc(NCc3c(F)ccc4c3CCO4)n3cnc1c23` [Compound 3, 11-(((5-fluoro-2,3-dihydrobenzofuran-4-yl)methyl)amino)-2,4,10,11a-tetraazadibenzo[cd,f]azulen-3(4H)-one] here?
A: The IC50 was 6.88 nM.

Q: Which IC50 does the source give for `CS(=O)(=O)c1ccc2c(c1)NC(=O)c1ncn3c(NCc4c(F)ccc5c4CCO5)ncc-2c13` [Compound 5, 11-(((5-fluoro-2,3-dihydrobenzofuran-4-yl)methyl)amino)-6-(methylsulfonyl)-2,4,10,11a-tetraazadibenzo[cd,f]azulen-3(4H)-one] here?
A: The IC50 was 0.26 nM.

Q: With `O=C1OCc2ccccc2-c2cnc(NCc3c(F)ccc4c3CCO4)n3cnc1c23` [Compound 6, 12-(((5-fluoro-2,3-dihydrobenzofuran-4-yl)methyl)amino)-3H,5H-4-oxa-2,11,12a-triazabenzo[4,5] cycloocta[1,2,3-cd]inden-3-one] as the compound, how does the IC50 read?
A: The IC50 was 0.19 nM.

Q: How did the IC50 turn out when `O=C1OCc2cc(F)ccc2-c2cnc(NCc3c(F)ccc4c3CCO4)n3cnc1c23` [Compound 7, 7-fluoro-12-(((5-fluoro-2,3-dihydrobenzofuran-4-yl)methyl)amino)-3H,5H-4-oxa-2,11,12a-triazabenzo [4,5]cycloocta[1,2,3-cd]inden-3-one] was run?
A: Its IC50 is 0.61 nM.

Q: `O=C1OCc2cc(C(F)(F)F)ccc2-c2cnc(NCc3c(F)ccc4c3CCO4)n3cnc1c23` [Compound 8, 12-(((5-fluoro-2,3-dihydrobenzofuran-4-yl)methyl)amino)-7-(trifluoromethyl)-3H,5H-4-oxa-2,11,12a-triazabenzo[4,5]cycloocta[1,2,3-cd]inden-3-one] was tested. Which IC50 did it give?
A: The IC50 was 1.97 nM.

Q: With `O=C1OCc2cc(F)ccc2-c2cnc(NCc3cccc4c3CCO4)n3cnc1c23` [Compound 9, 12-(((2,3-dihydrobenzofuran-4-yl)methyl)amino)-7-fluoro-3H,5H-4-oxa-2,11,12a-triazabenzo[4,5] cycloocta[1,2,3-cd]inden-3-one] as the compound, how does the IC50 read?
A: The IC50 was 0.84 nM.

Q: With `O=C1OCc2ncccc2-c2cnc(NCc3c(F)ccc4occc34)n3cnc1c23` [Compound 10, 12-(((5-fluorobenzofuran-4-yl)methyl)amino)-3H, 5H-4-oxa-2,6,11,12a-tetraazabenzo[4,5]cycloocta [1,2,3-cd]inden-3-one] as the compound, how does the IC50 read?
A: The IC50 was 1.11 nM.

Q: For `O=C1OCc2c(F)cccc2-c2cnc(NCc3c(F)ccc4c3CCO4)n3cnc1c23` [Compound 11, 6-fluoro-12-(((5-fluoro-2,3-dihydrobenzofuran-4-yl)methyl)amino)-3H,5H-4-oxa-2,11,12a-triazabenzo [4,5]cycloocta[1,2,3-cd]inden-3-one], which IC50 is on record?
A: Its IC50 is 0.75 nM.

Q: With `O=C1OCc2ncccc2-c2cnc(NCc3c(F)ccc4c3CCO4)n3cnc1c23` [Compound 12, 12-(((5-fluoro-2,3-dihydrobenzofuran-4-yl)methyl)amino)-3H,5H-4-oxa-2,6,11,12a-tetraazabenzo[4,5]cycloocta[1,2,3-cd]inden-3-one] as the compound, how does the IC50 read?
A: The IC50 was 0.34 nM.

Q: `O=C1OCc2cc(C(F)(F)F)ncc2-c2cnc(NCc3c(F)ccc4c3CCO4)n3cnc1c23` [Compound 13, 12-(((5-fluoro-2,3-dihydrobenzofuran-4-yl)methyl)amino)-7-(trifluoromethyl)-3H,5H-4-oxa-2,8,11, 12a-tetraazabenzo[4,5]cycloocta[1,2,3-cd]inden-3-one] was tested. Which IC50 did it give?
A: Its IC50 is 1.09 nM.

Q: With `O=C1OCc2nc(C(F)(F)F)ccc2-c2cnc(NCc3c(F)ccc4c3CCO4)n3cnc1c23` [Compound 14, 12-(((5-fluoro-2,3-dihydrobenzofuran-4-yl)methyl)amino)-7-(trifluoromethyl)-3H,5H-4-oxa-2,6,11, 12a-tetraazabenzo[4,5]cycloocta[1,2,3-cd]inden-3-one] as the compound, how does the IC50 read?
A: The IC50 was 3.35 nM.

Q: For `O=C1NCc2ccccc2-c2cnc(NCc3c(F)ccc4c3CCO4)n3cnc1c23` [Compound 15, 12-(((5-fluoro-2,3-dihydrobenzofuran-4-yl)methyl)amino)-4,5-dihydro-3H-2,4,11,12a-tetraazabenzo [4,5]cycloocta[1,2,3-cd]inden-3-one], which IC50 is on record?
A: The IC50 was 0.52 nM.

Q: `O=C1NCc2ncccc2-c2cnc(NCc3c(F)ccc4c3CCO4)n3cnc1c23` [Compound 16, 12-(((5-fluoro-2,3-dihydrobenzofuran-4-yl)methyl)amino)-4,5-dihydro-3H-2,4,6,11,12a-pentaazabenzo[4,5]cycloocta[1,2,3-cd]inden-3-one] was tested. Which IC50 did it give?
A: Its IC50 is 0.7 nM.

Q: Which IC50 does the source give for `O=C1NCc2cc(F)ccc2-c2cnc(NCc3c(F)ccc4c3CCO4)n3cnc1c23` [Compound 17, 7-fluoro-12-(((5-fluoro-2,3-dihydrobenzofuran-4-yl)methyl)amino)-4,5-dihydro-3H-2,4,11,12a-tetra azabenzo[4,5]cycloocta[1,2,3-cd]inden-3-one] here?
A: The IC50 was 0.66 nM.

Q: With `Cc1ccc2c(n1)COC(=O)c1ncn3c(NCc4c(F)ccc5c4CCO5)ncc-2c13` [Compound 18, 12-(((5-fluoro-2,3-dihydrobenzofuran-4-yl)methyl)amino)-7-methyl-3H,5H-4-oxa-2,6,11,12a-tetraazabenzo[4,5]cycloocta[1,2,3-cd]inden-3-one] as the compound, how does the IC50 read?
A: The IC50 was 0.7 nM.

Q: With `O=C1NCc2cc(C(F)(F)F)ccc2-c2cnc(NCc3c(F)ccc4c3CCO4)n3cnc1c23` [Compound 19, 12-(((5-fluoro-2,3-dihydrobenzofuran-4-yl)methyl)amino)-7-(trifluoromethyl)-4,5-dihydro-3H-2,4,11, 12a-tetraazabenzo[4,5]cycloocta[1,2,3-cd]inden-3-one] as the compound, how does the IC50 read?
A: Its IC50 is 1.13 nM.

Q: For `O=C1NCc2c(F)cccc2-c2cnc(NCc3c(F)ccc4c3CCO4)n3cnc1c23` [Compound 20, 6-fluoro-12-(((5-fluoro-2,3-dihydrobenzofuran-4-yl)methyl)amino)-4,5-dihydro-3H-2,4,11,12a-tetra azabenzo[4,5]cycloocta[1,2,3-cd]inden-3-one], which IC50 is on record?
A: The IC50 was 0.61 nM.

Q: With `Cc1ccc2c(n1)CNC(=O)c1ncn3c(NCc4c(F)ccc5c4CCO5)ncc-2c13` [Compound 21, 12-(((5-fluoro-2,3-dihydrobenzofuran-4-yl)methyl)amino)-7-methyl-4,5-dihydro-3H-2,4,6,11,12a-pentaazabenzo[4,5]cycloocta[1,2,3-cd]inden-3-one] as the compound, how does the IC50 read?
A: The IC50 was 0.55 nM.

Q: Which IC50 does the source give for `O=C1NCc2cc(C(F)(F)F)ncc2-c2cnc(NCc3c(F)ccc4c3CCO4)n3cnc1c23` [Compound 22, 12-(((5-fluoro-2,3-dihydrobenzofuran-4-yl)methyl)amino)-7-(trifluoromethyl)-4,5-dihydro-3H-2,4,8, 11,12a-pentaazabenzo[4,5]cycloocta[1,2,3-cd] inden-3-one] here?
A: The IC50 was 0.67 nM.

Q: For `O=C1NCc2ccc(F)cc2-c2cnc(NCc3c(F)ccc4c3CCO4)n3cnc1c23` [Compound 23, 8-fluoro-12-(((5-fluoro-2,3-dihydrobenzofuran-4-yl)methyl)amino)-4,5-dihydro-3H-2,4,11,12a-tetra azabenzo[4,5]cycloocta[1,2,3-cd]inden-3-one], which IC50 is on record?
A: Its IC50 is 1.18 nM.

From patent US20240316051A1, “A PHARMACEUTICAL COMBINATION AND USE THEREOF” (Ascentage Pharma (Suzhou) Co., Ltd., priority 2021, published 2024)
